# Source: patent US12173018B2, “Penicillin-binding protein inhibitors” (priority 2018, dated 2024)
# Read-outs that look alike come from different tables or passages of the source.
# What was measured:
# K. pneumoniae 848844 = assay: microbe, parasite or virus in culture; assay type: cell-based, Klebsiella pneumoniae; details: Klebsiella pneumoniae; K. pneumoniae 848844 producing SHV-11 and KPC-2; read-out: MIC K. pneumoniae 848844
# How it was run: (§1)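 Colonies from Mueller Hinton II agar were grown 3-5 hours at 37° C in cation-supplemented broth, adjusted by OD600, then added to 2-fold compound dilutions at 5×10^5 CFU/mL. After 16-20 hours at 37° C, MICs were scored visually.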
# E. coli ATCC 25922 = assay: Broth microdilution MIC, E. coli ATCC 25922; assay type: cell-based; details: Escherichia coli
# How it was run: as §1
# E. coli AG100A = assay: microbe, parasite or virus in culture; assay type: cell-based; details: Escherichia coli, read-out: MIC E. coli AG100A
# How it was run: as §1
# [1] = system: P. aeruginosa (ΔmexAB-oprM); assay: microbe, parasite or virus in culture; assay type: cell-based; details: Pseudomonas aeruginosa, read-out: MIC P. aeruginosa ΔmexAB-OprM
# How it was run: as §1
# E. coli D22 = assay: microbe, parasite or virus in culture; assay type: cell-based; details: Escherichia coli; hyper-permeable E. coli D22, broth microdilution; read-out: MIC E. coli D22
# How it was run: as §1
# K. pneumoniae SI-117 = assay: microbe, parasite or virus in culture; assay type: cell-based; details: Klebsiella pneumoniae, SI117, read-out: MIC K. pneumoniae SI-117
# How it was run: as §1
# K. pneumoniae UMM = assay: microbe, parasite or virus in culture; assay type: cell-based; details: Klebsiella pneumoniae; K. pneumoniae UMM producing SHV-5 and KPC-2; read-out: MIC K. pneumoniae UMM
# How it was run: as §1
# E. coli 901C = assay: microbe, parasite or virus in culture; assay type: cell-based; details: Escherichia coli; hyper-permeable E. coli 901C, broth microdilution; read-out: MIC E. coli 901C
# How it was run: as §1
# P. aeruginosa ATCC 35151 = assay: microbe, parasite or virus in culture; assay type: cell-based; details: Pseudomonas aeruginosa, ATCC35151; hyper-permeable P. aeruginosa ATCC 35151; read-out: MIC P. aeruginosa ATCC 35151
# How it was run: as §1
# E. coli AG100 = assay: Broth microdilution MIC, E. coli AG100 (wild-type parent); assay type: cell-based; details: Escherichia coli; wild-type parent E. coli AG100, broth microdilution; read-out: MIC E. coli AG100
# How it was run: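 Starting inoculum of 5×10^5 CFU/mL, from colonies grown 3-5 h in Mueller-Hinton broth with divalent cations, added to two-fold compound dilution series.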
# P. aeruginosa ATCC 27853 = assay: Broth microdilution MIC, P. aeruginosa ATCC 27853; assay type: cell-based; details: Pseudomonas aeruginosa
# Protocol: To determine the ability of test compounds to potentiate the inhibition of the growth of bacterial strains, classic cell based broth microdilution minimum inhibitory concentration (MIC) assays were employed. MIC assays are performed according to CLSI methods except where otherwise noted (CLSI, 2011 and CLSI, 2009). The reference type strain E. coli ATCC 25922, the wild-type parent strain E. coli AG100, the hyper-permeable E. coli 901C and E. coli D22 and the E. coli AG100A strain lacking the acrAB efflux pump encoding genes were used to determine the ability of the PBP inhibitors to penetrate the outer membrane of gram-negative bacteria and inhibit bacterial growth. […] The P. aeruginosa PAO1, P. aeruginosa ATCC 27853 and A. baumannii ATCC 19606, along with the hyper-permeable P. aeruginosa ATCC 35151 and an engineered efflux pump-compromised strain of P. aeruginosa (ΔmexAB-oprM) were used to determine the ability of PBP inhibitors to penetrate the outer membrane of P. aeruginosa and A. baumannii and assess antibacterial activity against these important gram-negative organisms.
# Briefly, cryo-preserved bacterial cultures of challenge strains are streaked for isolation on appropriate agar medium, in this case Mueller Hinton II agar. Following incubation to allow growth of the colonies, plates are sealed with parafilm and stored refrigerated for up to two weeks. For preparation of assay inoculum and to ensure low variability, at least 5 colonies are picked from the agar plates with an inoculating loop and aseptically transferred to a culture tube containing 3 mL of Mueller-Hinton Broth (supplemented with divalent cations to required levels based on Manufacturers' certification). The broth culture is grown for 3-5 hours at 37° C. with shaking at 200 rpm. Meanwhile, 2-fold serial dilutions of test compounds are conducted in a 96 well plate with a final volume of 75 μL per well at 2-fold the final desired concentration. After the dilution plates are set up the growing cultures are then diluted in a cuvette containing MH II broth and the optical density is measured at 600 nm. The Inoculum is diluted such that 75 μL of this culture in Mueller-Hinton Broth results in a starting bacterial concentration of 5×10^5 CFU/mL when added to the dilution plates. The plates are incubated for 16-20 hours at 37° C. The MIC values are read visually as the lowest concentration well with no bacterial growth.
# A. baumannii ATCC 19606 = assay: Broth microdilution MIC, A. baumannii ATCC 19606; assay type: cell-based; details: Acinetobacter baumannii
# How it was run: as §1
# E. coli PBP3 = E. coli PBP3 (Escherichia coli (strain K12), UniProt P0AD68); assay: E. coli PBP3 Bocillin-FL fluorescence polarization competition binding assay
# Sequence of E. coli PBP3 (P0AD68 whole entry): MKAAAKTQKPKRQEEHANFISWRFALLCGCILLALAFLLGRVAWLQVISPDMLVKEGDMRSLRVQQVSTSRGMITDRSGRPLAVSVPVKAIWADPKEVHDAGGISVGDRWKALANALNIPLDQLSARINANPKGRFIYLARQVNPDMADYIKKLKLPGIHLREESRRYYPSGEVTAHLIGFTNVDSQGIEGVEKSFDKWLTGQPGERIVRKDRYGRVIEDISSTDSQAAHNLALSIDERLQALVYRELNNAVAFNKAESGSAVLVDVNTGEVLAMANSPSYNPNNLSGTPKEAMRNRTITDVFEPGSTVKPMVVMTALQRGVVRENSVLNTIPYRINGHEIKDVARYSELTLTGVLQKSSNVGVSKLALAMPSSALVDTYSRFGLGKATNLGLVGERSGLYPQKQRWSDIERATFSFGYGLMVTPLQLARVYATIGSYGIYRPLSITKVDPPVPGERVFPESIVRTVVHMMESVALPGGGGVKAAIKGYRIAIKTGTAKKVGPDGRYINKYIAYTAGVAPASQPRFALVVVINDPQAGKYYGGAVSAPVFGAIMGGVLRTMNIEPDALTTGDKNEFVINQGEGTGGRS
# How it was run: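 FP competition: 1.5 μM PBP, 0.1 μM Bocillin-FL, cpd 0–1000 μM; 50 mM Hepes pH 8.0/300 mM NaCl/5% glycerol. Read 490/520 nm immediately after Bocillin-FL addition, 60 min. EC50 = cpd conc. lowering probe binding.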
# [2] = ATCC25922, read-out: MIC E. coli 25922
# [3] = ATCC27853, read-out: MIC P. aeruginosa ATCC 27853
# [4] = ATCC19606, read-out: MIC A. baumannii ATCC 19606
# [5] = ATCC25922, E. coli ATCC 25922, broth microdilution, read-out: MIC E. coli 25922
# [6] = ATCC27853, P. aeruginosa ATCC 27853, broth microdilution, read-out: MIC P. aeruginosa ATCC 27853
# [7] = ATCC19606, A. baumannii ATCC 19606, broth microdilution, read-out: MIC A. baumannii ATCC 19606
Compound,MIC (K. pneumoniae 848844),MIC (E. coli ATCC 25922; [2]),MIC (E. coli AG100A),MIC [1],MIC (E. coli D22),MIC (K. pneumoniae SI-117),MIC (K. pneumoniae UMM),MIC (E. coli 901C),MIC (P. aeruginosa ATCC 35151),MIC (E. coli AG100),MIC (P. aeruginosa ATCC 27853; [3]),MIC (A. baumannii ATCC 19606; [4]),MIC (E. coli ATCC 25922; [5]),MIC (P. aeruginosa ATCC 27853; [6]),MIC (A. baumannii ATCC 19606; [7]),EC50 (E. coli PBP3),"EC50 (E. coli PBP3; fluorescence polarization competition binding with Bocillin-FL, read-out: E. coli K12 PBP3 Potency)"
"CCN1C[C@H](CCN)N(C(=O)NC(C(=O)N[C@H]2Cc3cccc(C(=O)O)c3OB2O)c2ncc(O)cc2F)C(=O)C1=O (stereo partly drawn) [Example 240, (3R)-3-(2-((S)-6-(2-aminoethyl)-4-ethyl-2,3-dioxopiperazine-1-carboxamido)-2-(3-fluoro-5-hydroxypyridin-2-yl)acetamido)-2-hydroxy-3,4-dihydro-2H-benzo[e][1,2]oxaborinine-8-carboxylic acid]",> 128 µg/mL,> 128 µg/mL,8 to 16 µg/mL,> 128 µg/mL,8 to 16 µg/mL,> 128 µg/mL,> 128 µg/mL,8 to 16 µg/mL,8 to 16 µg/mL,> 128 µg/mL,> 128 µg/mL,> 128 µg/mL,–,–,–,–,–
"CNCCN1CCN(C(=O)N[C@@H](C(=O)N[C@H]2Cc3ccc(F)c(C(=O)O)c3OB2O)c2ccc(O)c(O)c2Cl)C(=O)C1=O [Example 242, (R)-3-((R)-2-(2-chloro-3,4-dihydroxyphenyl)-2-(4-(2-(methylamino)ethyl)-2,3-dioxopiperazine-1-carboxamido)acetamido)-7-fluoro-2-hydroxy-3,4-dihydro-2H-benzo[e][1,2]oxaborinine-8-carboxylic acid]",0.5 to 1 µg/mL,8 to 16 µg/mL,0.5 to 1 µg/mL,< 0.25 µg/mL,0.5 to 1 µg/mL,2 to 4 µg/mL,0.5 to 1 µg/mL,0.5 to 1 µg/mL,< 0.25 µg/mL,0.5 to 1 µg/mL,0.5 to 1 µg/mL,0.5 to 1 µg/mL,–,–,–,–,–
"CC(=O)NCCN1CCN(C(=O)NC(C(=O)N[C@H]2Cc3ccc(F)c(C(=O)O)c3OB2O)c2ccc(O)c(O)c2Cl)C(=O)C1=O (stereo partly drawn) [Example 243, (3R)-3-(2-(4-(2-acetamidoethyl)-2,3-dioxopiperazine-1-carboxamido)-2-(2-chloro-3,4-dihydroxyphenyl)acetamido)-7-fluoro-2-hydroxy-3,4-dihydro-2H-benzo[e][1,2]oxaborinine-8-carboxylic acid]",2 to 4 µg/mL,8 to 16 µg/mL,0.5 to 1 µg/mL,< 0.25 µg/mL,2 to 4 µg/mL,2 to 4 µg/mL,2 to 4 µg/mL,0.5 to 1 µg/mL,< 0.25 µg/mL,2 to 4 µg/mL,< 0.25 µg/mL,0.5 to 1 µg/mL,–,–,–,–,–
"NS(=O)(=O)NCCN1CCN(C(=O)NC(C(=O)N[C@H]2Cc3ccc(F)c(C(=O)O)c3OB2O)c2ccc(O)c(O)c2Cl)C(=O)C1=O (stereo partly drawn) [Example 244, (3R)-3-(2-(2-chloro-3,4-dihydroxyphenyl)-2-(2,3-dioxo-4-(2-(sulfamoylamino)ethyl)piperazine-1-carboxamido)acetamido)-7-fluoro-2-hydroxy-3,4-dihydro-2H-benzo[e][1,2]oxaborinine-8-carboxylic acid]",2 to 4 µg/mL,8 to 16 µg/mL,0.5 to 1 µg/mL,< 0.25 µg/mL,0.5 to 1 µg/mL,2 to 4 µg/mL,0.5 to 1 µg/mL,0.5 to 1 µg/mL,< 0.25 µg/mL,2 to 4 µg/mL,< 0.25 µg/mL,< 0.25 µg/mL,–,–,–,–,–
"CCN1CC(C)(C)N(C(=O)NC(C(=O)N[C@H]2Cc3cccc(C(=O)O)c3OB2O)c2ncc(O)cc2F)C(=O)C1=O (stereo partly drawn) [Example 245, (3R)-3-(2-(4-ethyl-2,2-dimethyl-5,6-dioxopiperazine-1-carboxamido)-2-(3-fluoro-5-hydroxypyridin-2-yl)acetamido)-2-hydroxy-3,4-dihydro-2H-benzo[e][1,2]oxaborinine-8-carboxylic acid]",> 128 µg/mL,> 128 µg/mL,32 to 64 µg/mL,> 128 µg/mL,> 128 µg/mL,> 128 µg/mL,> 128 µg/mL,8 to 16 µg/mL,32 to 64 µg/mL,> 128 µg/mL,> 128 µg/mL,> 128 µg/mL,–,–,–,–,–
"CCN1CCN(C(=O)NC(C(=O)N[C@H]2Cc3cccc(C(=O)O)c3OB2O)c2ncc(C(N)=O)cc2F)C(=O)C1=O (stereo partly drawn) [Example 246, (3R)-3-(2-(5-carbamoyl-3-fluoropyridin-2-yl)-2-(4-ethyl-2,3-dioxopiperazine-1-carboxamido)acetamido)-2-hydroxy-3,4-dihydro-2H-benzo[e][1,2]oxaborinine-8-carboxylic acid]",–,–,32 to 64 µg/mL,32 to 64 µg/mL,32 to 64 µg/mL,> 128 µg/mL,> 128 µg/mL,2 to 4 µg/mL,2 to 4 µg/mL,> 128 µg/mL,–,–,> 128 µg/mL,> 128 µg/mL,> 128 µg/mL,30 to 500 µM,–
"CCN1CCN(C(=O)NC(C(=O)N[C@H]2Cc3cccc(C(=O)O)c3OB2O)c2ccc(O)c([N+](=O)[O-])c2)C(=O)C1=O (stereo partly drawn) [Example 247, (3R)-3-(2-(4-ethyl-2,3-dioxopiperazine-1-carboxamido)-2-(4-hydroxy-3-nitrophenyl)acetamido)-2-hydroxy-3,4-dihydro-2H-benzo[e][1,2]oxaborinine-8-carboxylic acid]",–,–,2 to 4 µg/mL,8 to 16 µg/mL,2 to 4 µg/mL,> 128 µg/mL,> 128 µg/mL,< 0.25 µg/mL,0.5 to 1 µg/mL,32 to 64 µg/mL,–,–,32 to 64 µg/mL,> 128 µg/mL,> 128 µg/mL,–,< 30 µM
